Source: patent US8338475B2, “Anti-proliferative pharmaceutical composition” (BioCis Pharma Oy, priority 2003, dated 2012)
“And” between values parts separate entries of the source, which are not always exact repeats. Identical values can stand only once.

Test system: Ki67 (proliferating cells) in A2058 tumours
Experiment: Immunohistochemistry of tumours, Ki67 staining
Type: in vivo, SCID/SCID mice
Details: tumours collected after 16 days; 30 mM cis-UCA, 1 μM CPT intratumoural
Source text: After 16 days from the first injection, all the animals were sacrificed with CO2, and the tumours were collected and fixed in formalin for further studies. In groups A, C, and D, one mouse was sacrificed before the end of the experiment because of poor development of the tumour (no measurable tumour at day 0). One animal in group B was sacrificed prematurely after it had severly scratched the tumour. Data from these animals were not included in the calculation of the tumour size results. All the removed animals were female mice. Immunohistochemical data was obtained also from the removed mice except from group B. The experiments were conducted under a protocol approved by the local ethics committee.
Paraffin sections of the tumours were stained with haematoxylin/eosin following standard procedures for an overall picture. Ki67 was stained to detect the amount of proliferating cells. The staining procedure for the Ki67 primary antibody (Dako, Klostrup, Denmark) at 1:50 dilution and secondary antibody (StreptABComplex/HRP Duet Mouse/Rabbit, Dako) at 1:100 dilution followed the instructions provided by the manufacturer. Two sections from each tumour was examined.

With O=C(O)/C=C\c1c[nH]cn1 [cis-UCA, cis-urocanic acid] the “Ki67+ (number of positive tumours/total analysed)” value was “none of the analysed five tumours and 0/5”.
